Results taken from patent US11944092B2, “Compositions for controlling phytoplankton contamination” (BLUEGREEN WATER TECHNOLOGIES LTD., priority 2019, dated 2024).

Experiments:
Planktothrix agardhii [1] = conditions: cited from earlier work
Microcystis [2] = conditions: in vivo
Microcystis [3] = conditions: cited from earlier work
Planktothrix agardhii [4] = conditions: equivalent of 2.5 mg/L in 1140 L, 9500 cm^2
[5] = Buoyancy by weighing-pan set-up (FIG. 2); type: physicochemical
From the text: FIG. 2 schematically illustrates an experimental set-up for testing the buoyancy of the herein disclosed compositions, including (1) a balance; (2) a measuring pod with an aperture; (3) an underneath hook to measure weight; (4) a beaker filled with water simulating an aquatic system; (5) a weighing-pan.
In order to test the buoyancy of the herein disclosed compositions, an experimental set-up, schematically illustrated in FIG. 2, was applied. In this set-up, a laboratory balance 1 (0-2,000±0.1 g) was positioned to measure the weight of a composition placed on a weighing-pan 5 immersed in a beaker filled with water 4. If the composition is non-buoyant (AI without the coating material) an increase in weight is anticipated (‘negative control’). Oppositely, if the composition is buoyant, the weight is expected to remain essentially unchanged.

[6] = Buoyancy of sodium percarbonate in 15 ml vials; type: physicochemical; conditions: 5 grams, FIG. 5
[7] = Buoyancy and resurfacing of coated copper sulfate compositions in water (vials, glasses; visual); type: physicochemical; conditions: granular copper sulfate with different % (w/w) coating placed in water, FIG. 1
[8] = system: algal bloom (cyanobacterial biomass); assay: Seasonal treatment of algal bloom at ~1.04 km^2 irrigation pond; type: in vivo
Description: As detailed in FIG. 9, biomass and total copper concentrations were measured during the first two days to assess efficacy and minimal required AI concentrations. Cyanobacterial biomass was measured using a YSI Exo-3 probe that was supplied with a GPS. […] Water samples for total copper concentrations, as well as estimation of particle time travel on the water, as well as final coverage, was done with a kayak and by using a laser distance/range measurer. Total copper concentrations were measured with a YSI 9300 photometer in accordance with manufacturer instructions.

[9] = Sedimentation analysis in 10-liter cylinders with sediment; type: physicochemical; conditions: 10-liter cylinder, after one hour, FIG. 6
Description: Two 10-liter cylinders were filled with water and supplemented with sediment. To one cylinder, granules of copper sulfate pentahydrate (mimicking standard treatment) were added, while a buoyant copper-based composition was added to the other cylinder.

For `OO` [H2O2, hydrogen peroxide], the “lowest H2O2 concentration that sufficed to significantly reduce the P. agardhii population” value (Planktothrix agardhii [1]; Plexiglas containers, 2*10^6 cells/mL) is given as 2.5 mg/L, the “photosynthetic performance and cell counts of zooplankton population” value (Planktothrix agardhii [1]; at 2.5 mg/L H2O2) is given as “severely reduced” and the “time until cyanobacteria population started to recover” value (Planktothrix agardhii [1]; natural water body) is given as 6-7 weeks. The “H2O2 amount per surface area at which Microcystis decreased” value (Microcystis [2]) was at least 2.44 gr/m^2, the “H2O2 dose at which abundance of Microcystis decreased” value (Microcystis [3]; 150 L mesocosm) was at least 4 mg/L and the “cell density of Microcystis” value (Microcystis [3]; H2O2 dose 2 mg/L) was “did not decrease”. For the same compound, the “time to reappearance of high Microcystis cell density” value (Microcystis [3]; H2O2 dose of 2 mg/L) was 11 days and the “lowest effective H2O2 amount per surface area” value (Planktothrix agardhii [4]) was 2.85 gr/m^2.
With `O=c1nc([O-])n(Cl)c(=O)n1Cl.[Na+]` [un-encapsulated NADCC, sodium dichloroisocyanurate] the “weight increase on weighing-pan” value ([5]; 9.5 grams placed on the weighing-pan in water) was about 5.3 g.
With `O=C([O-])[O-].O=C([O-])[O-].OO.OO.OO.[Na+].[Na+].[Na+].[Na+]` [uncoated sodium percarbonate, sodium percarbonate] the buoyancy in water [6] was “sank immediately”.
For copper sulfate pentahydrate, the “buoyancy in water (floating, sinking, resurfacing)” value ([7]; listed as non-coated active ingredient (0.0% (w/w))) was “sank immediately to the bottom”, the “buoyancy in water (floating, sinking, resurfacing)” value ([7]; listed as raw copper salt (“0% coating”)) was “sunk immediately after dispersion” and the average chlorophyll-a concentration ([8]; 2015, 6 aerial applications, total of 8,000 kg) was 100-200 μg chlorophyll-a/L. For the same compound, the “average cyanobacterial concentration (chlorophyll-a)” value ([8]; 2016, 7 aerial applications of 2000 kg) was 60 to 80 µg/L, the “behaviour in water column with sediment” value [9] was “immediately sank into the sediment” and the “weight increase on weighing-pan” value ([5]; samples of 100 grams, set-up of FIG. 2) was 50%±3%.
